Laboratory results reported in patent US9139557B2, “Carboxamide compounds and their use as calpain inhibitors” (Abbott GmbH & Co. KG, priority 2006, dated 2015).

Legend:
Type in all cases: biochemical
cathepsin L = target: T1, cathepsin L (Homo sapiens, UniProt P07711); assay: Cathepsin L enzyme inhibition in vitro (kinetic fluorescence assay); settings: Ki(cathepsin L)/Ki(calpain) ratio
T1 construct: cathepsin L—isolated from human liver; purchased Calbiochem 219402; host or cells: human liver (tissue isolate)
T1 sequence (P07711 114-333): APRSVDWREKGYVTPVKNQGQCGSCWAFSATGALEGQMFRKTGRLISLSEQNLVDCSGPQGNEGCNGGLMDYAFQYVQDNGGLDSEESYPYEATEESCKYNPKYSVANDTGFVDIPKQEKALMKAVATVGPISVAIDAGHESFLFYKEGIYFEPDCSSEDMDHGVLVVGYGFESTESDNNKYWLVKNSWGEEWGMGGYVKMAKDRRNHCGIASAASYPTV
Summary of the method: (§1)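 Kinetic fluorescence (ex 390/em 460 nm), room temperature: calpain-I (human erythrocyte, 20 nM) with 100 µM Suc-Leu-Tyr-AMC, imidazole/CaCl2 pH 7.3; cathepsin B (liver, 0.25 nM), 100 µM Z-Phe-Arg-AMC; L (liver, 1 nM), 2 µM Z-Phe-Arg-AMC; S (recombinant, 0.5 nM), 20 µM Z-Val-Val-Arg-AMC; cathepsins in MES/EDTA/cysteine pH 6.0. Apparent Ki via Cheng-Prusoff, 2–4 curves averaged.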

cathepsin S = target: T2, cathepsin S (Homo sapiens, UniProt P25774); assay: Cathepsin S enzyme inhibition in vitro (kinetic fluorescence assay); settings: Ki(cathepsin S)/Ki(calpain) ratio
T2 construct: purchased Calbiochem 219343; host or cells: E. coli
T2 sequence (P25774 115-331): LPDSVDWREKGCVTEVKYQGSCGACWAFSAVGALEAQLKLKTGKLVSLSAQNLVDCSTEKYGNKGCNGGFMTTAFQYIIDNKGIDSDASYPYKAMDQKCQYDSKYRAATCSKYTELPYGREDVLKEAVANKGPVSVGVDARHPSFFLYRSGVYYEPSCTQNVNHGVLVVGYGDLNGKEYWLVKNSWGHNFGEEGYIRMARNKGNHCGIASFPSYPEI
Summary of the method: as §1

cathepsin B = target: T3, cathepsin B (Homo sapiens, UniProt P07858); assay: Cathepsin B enzyme inhibition in vitro (kinetic fluorescence assay); settings: Ki(cathepsin B)/Ki(calpain) ratio
T3 construct: cathepsin B—isolated from human liver; purchased Calbiochem 219362; host or cells: human liver (tissue isolate)
Summary of the method: as §1

cathepsin K = target: T4, cathepsin K (Homo sapiens, UniProt P43235); assay: Cathepsin K enzyme inhibition in vitro (kinetic fluorescence assay); settings: Ki(cathepsin K)/Ki(calpain) ratio
T4 construct: purchased Calbiochem 342001; host or cells: E. coli
T4 sequence (P43235 115-329): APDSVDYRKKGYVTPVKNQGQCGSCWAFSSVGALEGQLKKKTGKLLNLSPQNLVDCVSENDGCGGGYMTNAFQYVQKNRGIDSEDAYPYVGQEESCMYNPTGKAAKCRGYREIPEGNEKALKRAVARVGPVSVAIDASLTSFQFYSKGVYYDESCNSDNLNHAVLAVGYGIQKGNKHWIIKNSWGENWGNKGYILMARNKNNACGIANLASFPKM

Compound: NC(=O)C(=O)C(Cc1ccccc1)NC(=O)c1cccnc1-n1cc2c(n1)-c1cc(Cl)ccc1OC2 (centres unmarked) [Example 140, N-[3-Amino-2,3-dioxo-1-(phenylmethyl)propyl]-2-(8-chlorochromeno[4,3-c]pyrazol-2(4H)-yl)pyridine-3-carboxamide]
- Sel cat. L (cathepsin L): ++ (++ means a Ki(cathepsin L)/Ki(calpain) ratio of ≧50)
- Sel cat. S (cathepsin S): ++ (++ means a Ki(cathepsin S)/Ki(calpain) ratio of ≧100)
- Sel cat. B (cathepsin B): + (+ means 10≦Ki(cathepsin B)/Ki(calpain)<30)
- Sel cat. K (cathepsin K): ++ (++ means a Ki(cathepsin K)/Ki(calpain) ratio of ≧30)

Compound: NC(=O)C(=O)C(Cc1ccccc1)NC(=O)c1cccnc1-n1ccc(-c2cc(Cl)ccc2Cl)n1 (centres unmarked) [Example 112, N-[3-Amino-2,3-dioxo-1-(phenylmethyl)propyl]-2-[3-(2,5-dichlorophenyl)-1H-pyrazol-1-yl]pyridine-3-carboxamide]
- Sel cat. L (cathepsin L): ++ (++ means a Ki(cathepsin L)/Ki(calpain) ratio of ≧50)
- Sel cat. S (cathepsin S): ++ (++ means a Ki(cathepsin S)/Ki(calpain) ratio of ≧100)
- Sel cat. B (cathepsin B): ++ (++ means a Ki(cathepsin B)/Ki(calpain) ratio of ≧30)
- Sel cat. K (cathepsin K): ++ (++ means a Ki(cathepsin K)/Ki(calpain) ratio of ≧30)

Compound: COc1ccc2c(c1)OCc1cn(-c3ncccc3C(=O)NC(Cc3ccccc3)C(=O)C(N)=O)nc1-2 (centres unmarked) [Example 142, N-[3-Amino-2,3-dioxo-1-(phenylmethyl)propyl]-2-[7-(methyloxy)chromeno[4,3-c]pyrazol-2(4H)-yl]pyridine-3-carboxamide]
- Sel cat. L (cathepsin L): ++ (++ means a Ki(cathepsin L)/Ki(calpain) ratio of ≧50)
- Sel cat. S (cathepsin S): ++ (++ means a Ki(cathepsin S)/Ki(calpain) ratio of ≧100)
- Sel cat. B (cathepsin B): + (+ means 10≦Ki(cathepsin B)/Ki(calpain)<30)
- Sel cat. K (cathepsin K): + (+ means 10≦Ki(cathepsin K)/Ki(calpain)<30)

Compound: NC(=O)C(=O)C(Cc1ccccc1)NC(=O)c1cccnc1-n1ccc(-c2cccc(C(F)(F)F)c2)n1 (centres unmarked) [Example 83, N-(3-Amino-1-benzyl-2,3-dioxopropyl)-2-{3-[3-(trifluoromethyl)phenyl]-1H-pyrazol-1-yl}nicotinamide]
- Sel cat. L (cathepsin L): ++ (++ means a Ki(cathepsin L)/Ki(calpain) ratio of ≧50)
- Sel cat. S (cathepsin S): ++ (++ means a Ki(cathepsin S)/Ki(calpain) ratio of ≧100)
- Sel cat. B (cathepsin B): + (+ means 10≦Ki(cathepsin B)/Ki(calpain)<30)
- Sel cat. K (cathepsin K): ++ (++ means a Ki(cathepsin K)/Ki(calpain) ratio of ≧30)

Compound: COc1ccc(CC(NC(=O)c2cccnc2-n2ccc(-c3ccc4c(c3)OC(F)(F)O4)n2)C(=O)C(N)=O)cc1 (centres unmarked) [Example 137, N-(3-Amino-1-{[4-(methyloxy)phenyl]methyl}-2,3-dioxopropyl)-2-[3-(2,2-difluoro-1,3-benzodioxol-5-yl)-1H-pyrazol-1-yl]pyridine-3-carboxamide]
- Sel cat. L (cathepsin L): ++ (++ means a Ki(cathepsin L)/Ki(calpain) ratio of ≧50)
- Sel cat. S (cathepsin S): ++ (++ means a Ki(cathepsin S)/Ki(calpain) ratio of ≧100)
- Sel cat. B (cathepsin B): + (+ means 10≦Ki(cathepsin B)/Ki(calpain)<30)
- Sel cat. K (cathepsin K): + (+ means 10≦Ki(cathepsin K)/Ki(calpain)<30)

Compound: NC(=O)C(=O)C(Cc1ccccc1)NC(=O)c1cccnc1-n1cc2c(n1)-c1ccccc1S(=O)(=O)C2 (centres unmarked) [Example 174, N-[3-Amino-2,3-dioxo-1-(phenylmethyl)propyl]-2-(5,5-dioxidothiochromeno[4,3-c]pyrazol-2(4H)-yl)pyridine-3-carboxamide]
- Sel cat. L (cathepsin L): ++ (++ means a Ki(cathepsin L)/Ki(calpain) ratio of ≧50)
- Sel cat. S (cathepsin S): ++ (++ means a Ki(cathepsin S)/Ki(calpain) ratio of ≧100)
- Sel cat. B (cathepsin B): + (+ means 10≦Ki(cathepsin B)/Ki(calpain)<30)
- Sel cat. K (cathepsin K): + (+ means 10≦Ki(cathepsin K)/Ki(calpain)<30)

Compound: NC(=O)C(=O)C(Cc1ccccc1)NC(=O)c1cccnc1-n1ccc(-c2cccc(Cl)c2)n1 (centres unmarked) [Example 70, N-(3-Amino-1-benzyl-2,3-dioxopropyl)-2-[3-(3-chlorophenyl)-1H-pyrazol-1-yl]nicotinamide]
- Sel cat. L (cathepsin L): ++ (++ means a Ki(cathepsin L)/Ki(calpain) ratio of ≧50)
- Sel cat. S (cathepsin S): ++ (++ means a Ki(cathepsin S)/Ki(calpain) ratio of ≧100)
- Sel cat. B (cathepsin B): + (+ means 10≦Ki(cathepsin B)/Ki(calpain)<30)
- Sel cat. K (cathepsin K): + (+ means 10≦Ki(cathepsin K)/Ki(calpain)<30)

Compound: NC(=O)C(=O)C(Cc1ccc(OCc2ccccc2)cc1)NC(=O)c1cccnc1-n1ccc(-c2ccccc2)n1 (centres unmarked) [Example 127, N-[3-Amino-2,3-dioxo-1-({4-[(phenylmethyl)oxy]phenyl}methyl)propyl]-2-(3-phenyl-1H-pyrazol-1-yl)pyridine-3-carboxamide]
- Sel cat. L (cathepsin L): ++ (++ means a Ki(cathepsin L)/Ki(calpain) ratio of ≧50)
- Sel cat. S (cathepsin S): ++ (++ means a Ki(cathepsin S)/Ki(calpain) ratio of ≧100)
- Sel cat. B (cathepsin B): ++ (++ means a Ki(cathepsin B)/Ki(calpain) ratio of ≧30)
- Sel cat. K (cathepsin K): ++ (++ means a Ki(cathepsin K)/Ki(calpain) ratio of ≧30)

Compound: Cc1c(Cl)ccc2c1-c1nn(-c3ncccc3C(=O)NC(Cc3ccccc3)C(=O)C(N)=O)cc1CO2 (centres unmarked) [Example 143, N-[3-Amino-2,3-dioxo-1-(phenylmethyl)propyl]-2-(8-chloro-9-methylchromeno[4,3-c]pyrazol-2(4H)-yl)pyridine-3-carboxamide]
- Sel cat. L (cathepsin L): ++ (++ means a Ki(cathepsin L)/Ki(calpain) ratio of ≧50)
- Sel cat. S (cathepsin S): ++ (++ means a Ki(cathepsin S)/Ki(calpain) ratio of ≧100)
- Sel cat. B (cathepsin B): ++ (++ means a Ki(cathepsin B)/Ki(calpain) ratio of ≧30)
- Sel cat. K (cathepsin K): ++ (++ means a Ki(cathepsin K)/Ki(calpain) ratio of ≧30)

Compound: NC(=O)C(=O)C(Cc1ccccc1)NC(=O)c1cccnc1-n1ccc(-c2ccccc2OC(F)(F)F)n1 (centres unmarked) [Example 124, N-[3-Amino-2,3-dioxo-1-(phenylmethyl)propyl]-2-(3-{2-[(trifluoromethyl)oxy]phenyl}-1H-pyrazol-1-yl)pyridine-3-carboxamide]
- Sel cat. L (cathepsin L): ++ (++ means a Ki(cathepsin L)/Ki(calpain) ratio of ≧50)
- Sel cat. S (cathepsin S): ++ (++ means a Ki(cathepsin S)/Ki(calpain) ratio of ≧100)
- Sel cat. B (cathepsin B): ++ (++ means a Ki(cathepsin B)/Ki(calpain) ratio of ≧30)
- Sel cat. K (cathepsin K): ++ (++ means a Ki(cathepsin K)/Ki(calpain) ratio of ≧30)

Compound: NC(=O)C(=O)C(Cc1ccccc1)NC(=O)c1cccnc1-n1ccc(-c2cccc(Cl)c2Cl)n1 (centres unmarked) [Example 115, N-[3-Amino-2,3-dioxo-1-(phenylmethyl)propyl]-2-[3-(2,3-dichlorophenyl)-1H-pyrazol-1-yl]pyridine-3-carboxamide]
- Sel cat. L (cathepsin L): ++ (++ means a Ki(cathepsin L)/Ki(calpain) ratio of ≧50)
- Sel cat. S (cathepsin S): ++ (++ means a Ki(cathepsin S)/Ki(calpain) ratio of ≧100)
- Sel cat. B (cathepsin B): ++ (++ means a Ki(cathepsin B)/Ki(calpain) ratio of ≧30)
- Sel cat. K (cathepsin K): ++ (++ means a Ki(cathepsin K)/Ki(calpain) ratio of ≧30)

Compound: NC(=O)C(=O)C(Cc1ccccc1)NC(=O)c1cccnc1-n1ccc(-c2c(F)ccc(Cl)c2Cl)n1 (centres unmarked) [Example 120, N-[3-Amino-2,3-dioxo-1-(phenylmethyl)propyl]-2-[3-(2,3-dichloro-6-fluorophenyl)-1H-pyrazol-1-yl]pyridine-3-carboxamide]
- Sel cat. L (cathepsin L): + (+ means 30≦Ki(cathepsin L)/Ki(calpain)<50)
- Sel cat. S (cathepsin S): ++ (++ means a Ki(cathepsin S)/Ki(calpain) ratio of ≧100)
- Sel cat. B (cathepsin B): ++ (++ means a Ki(cathepsin B)/Ki(calpain) ratio of ≧30)
- Sel cat. K (cathepsin K): ++ (++ means a Ki(cathepsin K)/Ki(calpain) ratio of ≧30)

Compound: NC(=O)C(=O)C(Cc1ccccc1)NC(=O)c1cccnc1-n1ccc(-c2ccccc2OC(F)F)n1 (centres unmarked) [Example 166, N-[3-Amino-2,3-dioxo-1-(phenylmethyl)propyl]-2-(3-{2-[(difluoromethyl)oxy]phenyl}-1H-pyrazol-1-yl)pyridine-3-carboxamide]
- Sel cat. L (cathepsin L): ++ (++ means a Ki(cathepsin L)/Ki(calpain) ratio of ≧50)
- Sel cat. S (cathepsin S): ++ (++ means a Ki(cathepsin S)/Ki(calpain) ratio of ≧100)
- Sel cat. B (cathepsin B): + (+ means 10≦Ki(cathepsin B)/Ki(calpain)<30)
- Sel cat. K (cathepsin K): ++ (++ means a Ki(cathepsin K)/Ki(calpain) ratio of ≧30)

Compound: NC(=O)C(=O)C(Cc1ccccc1)NC(=O)c1cccnc1-n1cc2c(n1)-c1ccccc1OC2 (centres unmarked) [Example 100, N-[3-Amino-2,3-dioxo-1-(phenylmethyl)propyl]-2-chromeno[4,3-c]pyrazol-2(4H)-ylpyridine-3-carboxamide]
- Sel cat. L (cathepsin L): ++ (++ means a Ki(cathepsin L)/Ki(calpain) ratio of ≧50)
- Sel cat. S (cathepsin S): ++ (++ means a Ki(cathepsin S)/Ki(calpain) ratio of ≧100)
- Sel cat. B (cathepsin B): + (+ means 10≦Ki(cathepsin B)/Ki(calpain)<30)
- Sel cat. K (cathepsin K): ++ (++ means a Ki(cathepsin K)/Ki(calpain) ratio of ≧30)
